# Source: US10752584B2 (EMORY UNIVERSITY, priority 2016, dated 2020)
# Experiments:
# Assay type in all cases: cell-based
# [1] = Cellular toxicity assay in CEM cells; details: human, CEM lymphoblastoid cells, read-out: Cytotoxicity
# Experimental: (§1) The toxicity of the compounds was assessed in Vero, human PBM, CEM (human lymphoblastoid), MT-2, and HepG2 cells, as described previously (see Schinazi R. F., Sommadossi J.-P., Saalmann V., Cannon D. L., Xie M.-Y., Hart G. C., Smith G. A. & Hahn E. F. Antimicrob. Agents Chemother. 1990, 34, 1061-67). Cycloheximide was included as positive cytotoxic control, and untreated cells exposed to solvent were included as negative controls. The cytotoxicity IC50 was obtained from the concentration-response curve using the median effective method described previously (see Chou T.-C. & Talalay P. Adv. Enzyme Regul. 1984, 22, 27-55; Belen'kii M. S. & Schinazi R. F. Antiviral Res. 1994, 25, 1-11).
# [2] = Cellular toxicity assay in Vero cells; details: African green monkey, read-out: Cytotoxicity
# Experimental: as §1
# [3] = Cellular toxicity assay in human PBM cells; details: human, human PBM cells, read-out: Cytotoxicity
# Experimental: as §1
# [4] = Cellular toxicity assay in HepG2 cells; details: human, read-out: Cytotoxicity
# Experimental: as §1
# wild type HBV = assay: Anti-HBV assay in AD-38 cell line; details: Hepatitis B virus, AD-38 cells, HBV in culture supernatant; for EC50: read-out: Anti-HBV activity EC50; for EC90: read-out: Anti-HBV activity EC90
# Experimental: The anti-HBV activity of the compounds was determined by treating the AD-38 cell line carrying wild type HBV under the control of tetracycline (see Ladner S. K., Otto M. J., Barker C. S., Zaifert K., Wang G. H., Guo J. T., Seeger C. & King R. W. Antimicrob. Agents Chemother. 1997, 41, 1715-20). Removal of tetracycline from the medium [Tet (−)] results in the production of HBV. The levels of HBV in the culture supernatant fluids from cells treated with the compounds were compared with that of the untreated controls. Control cultures with tetracycline [Tet (+)] were also maintained to determine the basal levels of HBV expression. 3TC was included as positive control.
# The median effective concentrations (EC50) ranges of several of the compounds described herein against HBV are shown in Table 3: […]
Structure (SMILES),CC50 [1] [µM],CC50 [2] [µM],CC50 [3] [µM],CC50 [4] [µM],EC50 (wild type HBV) [µM],EC90 (wild type HBV) [µM]
"Cc1c(C(=O)C(=O)N2CCN(C)CC2)c(C)n(C)c1C(=O)Nc1ccc(F)c(F)c1 [Compound 44, N-(3,4-difluorophenyl)-1,3,5-trimethyl-4-(2-(4-methylpiperazin-1-yl)-2-oxoacetyl)-1H-pyrrole-2-carboxamide]",17,> 100,92,90,0.1 to 0.9,1 to 9
"Cc1c(C(=O)C(=O)Nc2nccs2)c(C)n(C)c1C(=O)Nc1ccc(F)c(F)c1 [Compound 78, N-(3,4-difluorophenyl)-1,3,5-trimethyl-4-(2-oxo-2-(thiazol-2-ylamino)acetyl)-1H-pyrrole-2-carboxamide]",15,> 100,> 100,84,0.001 to 0.009,0.01 to 0.09
"CCN(CC)C(=O)C(=O)c1c(C)c(C(=O)Nc2ccc(F)c(F)c2)n(C)c1C [Compound 45, 4-(2-(diethylamino)-2-oxoacetyl)-N-(3,4-difluorophenyl)-1,3,5-trimethyl-1H-pyrrole-2-carboxamide]",36,47,90,75,0.1 to 0.9,1 to 9
"C=CCNC(=O)C(=O)c1cc(C(=O)Nc2ccc(F)c(F)c2)n(C)c1 [Compound 25, 4-(2-(allylamino)-2-oxoacetyl)-N-(3,4-difluorophenyl)-1-methyl-1H-pyrrole-2-carboxamide]",> 100,68.1,> 100,> 100,0.01 to 0.09,1 to 9
"C#CCNC(=O)C(=O)c1c(C)c(C(=O)Nc2ccc(S(F)(F)(F)(F)F)cc2)n(C)c1C [Compound 59, 1,3,5-trimethyl-4-(2-oxo-2-(prop-2-yn-1-ylamino)acetyl)-N-(4-(pentafluorosulfanyl)phenyl)-1H-pyrrole-2-carboxamide]",3,12,44,43,1 to 9,
"Cn1cc(C(=O)C(=O)Nc2nccs2)cc1C(=O)Nc1ccc(F)c(F)c1 [Compound 26, N-(3,4-difluorophenyl)-1-methyl-4-(2-oxo-2-(thiazol-2-ylamino)acetyl)-1H-pyrrole-2-carboxamide]",> 100,31.2,> 100,> 100,0.1 to 0.9,1 to 9
"C#CCNC(=O)C(=O)c1c(C)c(C(=O)Nc2ccc(F)c(C#N)c2)n(C)c1C [Compound 7b, N-(3-cyano-4-fluorophenyl)-1,3,5-trimethyl-4-(2-oxo-2-(prop-2-yn-1-ylamino)acetyl)-1H-pyrrole-2-carboxamide]",> 100,> 100,> 100,> 100,0.01 to 0.09,0.1 to 0.9
"C#CCNC(=O)C(=O)c1c(C)c(C(=O)Nc2cccc(S(F)(F)(F)(F)F)c2)n(C)c1C [Compound 60, 1,3,5-trimethyl-4-(2-oxo-2-(prop-2-yn-1-ylamino)acetyl)-N-(3-(pentafluorosulfanyl)phenyl)-1H-pyrrole-2-carboxamide]",23,82,86,> 100,0.1 to 0.9,0.1 to 0.9
"C#CCNC(=O)C(=O)c1c(C)c(C(=O)Nc2ccc(F)c(C)c2)n(C)c1C [Compound 64, N-(4-fluoro-3-methylphenyl)-1,3,5-trimethyl-4-(2-oxo-2-(prop-2-yn-1-ylamino)acetyl)-1H-pyrrole-2-carboxamide]",18,96,> 100,> 100,0.0001 to 0.0009,0.001 to 0.009
"C#CCNC(=O)C(=O)c1c(C)c(C(=O)Nc2ccncc2)n(C)c1C [Compound 63, 1,3,5-trimethyl-4-(2-oxo-2-(prop-2-yn-1-ylamino)acetyl)-N-(pyridin-4-yl)-1H-pyrrole-2-carboxamide]",> 100,> 100,> 100,> 100,0.1 to 0.9,1 to 9
"Cc1c(C(=O)C(=O)Nc2ccccc2)c(C)n(C)c1C(=O)Nc1ccc(F)c(F)c1 [Compound 69, N-(3,4-difluorophenyl)-1,3,5-trimethyl-4-(2-oxo-2-(phenylamino)acetyl)-1H-pyrrole-2-carboxamide]",> 100,48,> 100,59,0.001 to 0.009,0.01 to 0.09
"Cc1c(C(=O)C(=O)Nc2nc3ccccc3[nH]2)c(C)n(C)c1C(=O)Nc1ccc(F)c(F)c1 [Compound 46, 4-(2-((1H-benzo[d]imidazol-2-yl)amino)-2-oxoacetyl)-N-(3,4-difluorophenyl)-1,3,5-trimethyl-1H-pyrrole-2-carboxamide]",38,10,> 100,7,0.1 to 0.9,1 to 9
"C#CCNC(=O)C(=O)c1c(C)c(C(=O)Nc2ccccc2)n(C)c1C [Compound 58, 1,3,5-trimethyl-4-(2-oxo-2-(prop-2-yn-1-ylamino)acetyl)-N-phenyl-1H-pyrrole-2-carboxamide]",> 100,> 100,> 100,> 100,0.01 to 0.09,0.1 to 0.9
"Cc1c(C(=O)C(=O)Nc2ccccn2)c(C)n(C)c1C(=O)Nc1ccc(F)c(F)c1 [Compound 43, N-(3,4-difluorophenyl)-1,3,5-trimethyl-4-(2-oxo-2-(pyridin-2-ylamino)acetyl)-1H-pyrrole-2-carboxamide]",50,> 100,> 100,> 100,0.01 to 0.09,0.1 to 0.9
"Cc1c(C(=O)C(=O)NCc2ccccn2)c(C)n(C)c1C(=O)Nc1ccc(F)c(F)c1 [Compound 47, N-(3,4-difluorophenyl)-1,3,5-trimethyl-4-(2-oxo-2-((pyridin-2-ylmethyl)amino)acetyl)-1H-pyrrole-2-carboxamide]",47,51,> 100,35,0.01 to 0.09,0.1 to 0.9
"C#CCNC(=O)C(=O)c1c(C)c(C(=O)Nc2cncnc2)n(C)c1C [Compound 62, 1,3,5-trimethyl-4-(2-oxo-2-(prop-2-yn-1-ylamino)acetyl)-N-(pyrimidin-5-yl)-1H-pyrrole-2-carboxamide]",> 100,> 100,> 100,> 100,1 to 9,1 to 9
"C#CCNC(=O)C(=O)c1c(C)c(C(=O)Nc2cccc(OC(F)(F)F)c2)n(C)c1C [Compound 55, 1,3,5-trimethyl-4-(2-oxo-2-(prop-2-yn-1-ylamino)acetyl)-N-(3-(trifluoromethoxy)phenyl)-1H-pyrrole-2-carboxamide]",38,15,> 100,88,0.1 to 0.9,1 to 9
"Cn1cc(NS(=O)(=O)c2ccccc2)cc1C(=O)Nc1ccc(F)c(F)c1 [Compound 36, N-(3,4-difluorophenyl)-1-methyl-4-(phenylsulfonamido)-1H-pyrrole-2-carboxamide]",36.7,22.9,13.9,43.5,0.1 to 0.9,1 to 9
"Cn1cc(C(=O)C(=O)N2CCOCC2)cc1C(=O)Nc1ccc(F)c(F)c1 [Compound 31, N-(3,4-difluorophenyl)-1-methyl-4-(2-morpholino-2-oxoacetyl)-1H-pyrrole-2-carboxamide]",> 100,41.9,> 100,93.9,0.01 to 0.09,1 to 9
